# Values of other authors in patent EP2243483A1, “Amlodipine salt compositions for topical application” (priority 2009, dated 2010).
# Structures can show the parent of a compound that is named as a salt.
# What was measured:
# [1] = hypertensive patients
# [2] = tablets
# [3] = biological target: T1, 2B6 (Homo sapiens, UniProt P20813)
# T1 sequence (P20813 1-491): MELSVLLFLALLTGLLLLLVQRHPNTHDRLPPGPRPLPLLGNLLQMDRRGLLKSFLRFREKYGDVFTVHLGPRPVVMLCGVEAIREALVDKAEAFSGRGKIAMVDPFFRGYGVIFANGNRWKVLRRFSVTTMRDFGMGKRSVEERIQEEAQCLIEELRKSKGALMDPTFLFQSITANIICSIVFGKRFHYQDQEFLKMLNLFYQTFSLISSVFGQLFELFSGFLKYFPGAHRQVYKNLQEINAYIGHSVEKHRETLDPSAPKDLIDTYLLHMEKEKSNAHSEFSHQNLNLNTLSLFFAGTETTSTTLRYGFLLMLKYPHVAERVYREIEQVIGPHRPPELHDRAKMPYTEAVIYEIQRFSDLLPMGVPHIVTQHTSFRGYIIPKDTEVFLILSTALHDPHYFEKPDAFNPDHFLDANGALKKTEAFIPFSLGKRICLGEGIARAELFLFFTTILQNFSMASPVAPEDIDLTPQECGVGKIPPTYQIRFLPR
# [4] = test system: 2C8/9
# [5] = biological target: 2D6 (Homo sapiens, UniProt P10635)
# [6] = biological target: 3A4 (Homo sapiens, UniProt P08684)
# [7] = biological target: T2, CYP 1A2 isoenzyme (Homo sapiens, UniProt P05177)
# T2 sequence (P05177 1-516): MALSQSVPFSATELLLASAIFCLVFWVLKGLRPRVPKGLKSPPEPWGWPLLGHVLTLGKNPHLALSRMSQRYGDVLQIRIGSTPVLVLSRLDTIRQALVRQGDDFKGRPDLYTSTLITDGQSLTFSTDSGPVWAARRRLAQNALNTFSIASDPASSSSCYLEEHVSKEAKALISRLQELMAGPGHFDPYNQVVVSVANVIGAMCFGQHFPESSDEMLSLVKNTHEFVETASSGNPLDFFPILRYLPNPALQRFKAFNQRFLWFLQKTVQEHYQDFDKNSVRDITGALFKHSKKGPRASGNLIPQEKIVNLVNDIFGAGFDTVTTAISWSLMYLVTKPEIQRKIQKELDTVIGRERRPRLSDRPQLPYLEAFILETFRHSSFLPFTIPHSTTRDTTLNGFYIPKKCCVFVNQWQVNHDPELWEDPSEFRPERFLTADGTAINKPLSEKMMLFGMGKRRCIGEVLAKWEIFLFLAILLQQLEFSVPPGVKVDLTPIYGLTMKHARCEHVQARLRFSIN
# [8] = biological target: T3, 2A6 (Homo sapiens, UniProt P11509)
# T3 sequence (P11509 1-494): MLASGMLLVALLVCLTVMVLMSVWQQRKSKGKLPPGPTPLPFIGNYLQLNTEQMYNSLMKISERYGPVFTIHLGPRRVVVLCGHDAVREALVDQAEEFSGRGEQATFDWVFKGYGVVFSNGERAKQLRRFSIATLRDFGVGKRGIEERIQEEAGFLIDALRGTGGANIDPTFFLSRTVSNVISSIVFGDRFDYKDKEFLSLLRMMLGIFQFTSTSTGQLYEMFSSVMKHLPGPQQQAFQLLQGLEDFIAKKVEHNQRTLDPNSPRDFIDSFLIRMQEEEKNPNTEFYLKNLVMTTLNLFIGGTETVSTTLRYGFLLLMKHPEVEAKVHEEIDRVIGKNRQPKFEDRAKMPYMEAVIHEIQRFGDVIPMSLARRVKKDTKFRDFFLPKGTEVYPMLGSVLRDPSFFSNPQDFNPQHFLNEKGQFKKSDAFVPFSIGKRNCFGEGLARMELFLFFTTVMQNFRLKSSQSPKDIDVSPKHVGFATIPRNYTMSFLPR
# 3A4, sequence (P08684 whole entry): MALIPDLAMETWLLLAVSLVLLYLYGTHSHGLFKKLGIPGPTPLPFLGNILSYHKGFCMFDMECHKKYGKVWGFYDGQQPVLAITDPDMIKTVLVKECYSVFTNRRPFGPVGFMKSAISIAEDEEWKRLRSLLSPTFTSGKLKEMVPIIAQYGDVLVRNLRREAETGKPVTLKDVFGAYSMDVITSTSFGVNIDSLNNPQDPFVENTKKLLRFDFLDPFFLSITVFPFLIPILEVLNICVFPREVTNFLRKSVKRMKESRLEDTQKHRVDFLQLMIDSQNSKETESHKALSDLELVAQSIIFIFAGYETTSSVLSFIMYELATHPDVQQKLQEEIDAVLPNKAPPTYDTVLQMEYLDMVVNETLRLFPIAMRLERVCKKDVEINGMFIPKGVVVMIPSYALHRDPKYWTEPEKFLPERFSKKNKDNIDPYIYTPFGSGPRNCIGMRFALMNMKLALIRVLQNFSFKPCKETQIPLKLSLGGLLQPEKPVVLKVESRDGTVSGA
# 2D6, sequence (P10635 whole entry): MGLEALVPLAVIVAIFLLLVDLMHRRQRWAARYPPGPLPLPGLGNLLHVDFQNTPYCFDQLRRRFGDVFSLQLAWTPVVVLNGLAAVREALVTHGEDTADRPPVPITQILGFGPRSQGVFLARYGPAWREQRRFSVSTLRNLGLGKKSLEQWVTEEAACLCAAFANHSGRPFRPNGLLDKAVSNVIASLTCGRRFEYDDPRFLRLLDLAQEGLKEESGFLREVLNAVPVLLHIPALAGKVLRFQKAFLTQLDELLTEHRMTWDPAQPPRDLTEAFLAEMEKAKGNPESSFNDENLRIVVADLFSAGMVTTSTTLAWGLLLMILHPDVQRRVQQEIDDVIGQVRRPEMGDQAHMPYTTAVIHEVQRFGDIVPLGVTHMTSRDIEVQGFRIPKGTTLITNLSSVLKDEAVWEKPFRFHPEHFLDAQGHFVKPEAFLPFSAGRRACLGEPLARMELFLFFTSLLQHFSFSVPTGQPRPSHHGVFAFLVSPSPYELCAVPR
SMILES,circulating drug bound to plasma protein [1],"converted to inactive metabolites via hepatic metabolism (in vivo, po)","time of peak concentration (in vivo, po) [h]","time required for therapeutic response, initially [2] [days]","time required for therapeutic response, peak [2]",inhibition [3],inhibition [4],inhibition [5],inhibition [6],"parent compound excreted in the urine (in vivo, po) [%]","metabolites excreted in the urine (urine, oral) [%]",inhibition [7],inhibition [8]
CCOC(=O)C1=C(COCCN)NC(C)=C(C(=O)OC)C1c1ccccc1Cl (stereo not shown) [amlodipine maleate],Approximately 93%,About 90%,6 to 12,7,about 14 days,–,–,–,–,–,–,–,–
CCOC(=O)C1=C(COCCN)NC(C)=C(C(=O)OC)C1c1ccccc1Cl (stereo not shown) [amlodipine],–,–,–,–,–,weaker inhibition,weaker inhibition,weaker inhibition,weaker inhibition,10,60,moderately inhibited,weaker inhibition
